Assay: Aqueous solubility according to OECD 105

Compound	Solubility in water at 23° C. [%]
2-hydroxy-2-sulfonatoacetic acid disodium salt	7
O=C([O-])C(O)S(=O)(=O)[O-].[Zn+2] (centres unmarked) [Example 1, Zinc-Salt of 2-Hydroxy-2-Sulfonatoacetic Acid]	39
